According to PubChem BioAssay AID179 (DTP/NCI, 2004):
Active and inactive are the calls of the source.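 Rule for the calls: active = compounds giving half or more protection of infected cells from virus-caused growth loss, again on retest; inactive = the rest.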

System: CEM cells HIV-1 protection, formazan growth assay
Assay: NCI AIDS Antiviral Assay
Conditions: for IC50: measured here: growth of uninfected CEM cells
Summary of the method: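 Protection of CEM cells against HIV-1 measured as cell growth via soluble formazan read-out, with five concentrations tested on both infected and uninfected cells; failure to protect may reflect toxicity.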

| Structure (SMILES) | EC50 [µM] | IC50 [µM] | outcome |
| --- | --- | --- | --- |
| O=c1ccn([C@@H]2C=C(CO)[C@@H](O)[C@H]2O)c(=O)[nH]1 | > 200 | > 200 | – |
| CC1C(C#N)(C#N)C(C#N)=C(N)C1(C)[N+](=O)[O-] (stereo not given) | > 200 | 27.5 | – |
| COc1cc2c(cc1OC)C(C1C(=O)CC(C)(C)CC1=O)NCC2 (stereo not given) | – | – | inactive |
| O=C1C2C3C=CC(C3)C2C2C3C=CC(C3)C12 (stereo not given) | > 324 | > 324 | – |
| O=C(CC1(O)C(=O)Nc2c(Cl)cc(Cl)cc21)c1ccc(Br)cc1 (stereo not given) | > 26.9 | 15.8 | – |
| CCN(CC)C1=C(N(CC)CC)C(N(CC)CC)=C(N(CC)CC)C1=O.[C-]#[O+].[C-]#[O+].[C-]#[O+].[Fe] | > 2.88 | > 2.88 | – |
| CN(C)c1ccc(/C=C/C(=O)c2ccccc2)cc1Br | > 15.8 | > 15.8 | – |
| O=C1C2=Nc3ccccc3C(O)(C(=O)O)N2c2ccccc21 (stereo not given) | > 200 | 16.6 | – |
| COc1ccc(-c2c3ccccc3c(-c3ccc(OC)cc3)c3ccccc23)cc1 | > 2.69 | > 2.69 | – |
| COc1cccc(N2C(Cl)C(=O)C2c2c[nH]c3ccccc23)c1 (stereo not given) | > 79.4 | > 79.4 | – |
| O=C1OC(C2OC(=O)c3cc(O)c(O)c(O)c3-c3c(O)c(O)c4oc(=O)c5c(c(O)c(O)c6oc(=O)c3c4c65)-c3c(cc(O)c(O)c3O)C(=O)OCC2O)C2OC(=O)c3c(c(O)c(O)c(O)c3C2O)-c2c1cc(O)c(O)c2O (stereo not given) | 1.62 | 12 | – |
| Cc1cc2nn(C3CCCO3)nc2cc1C (stereo not given) | > 200 | > 200 | – |
| CCOC(=O)c1cnc(NC)n2nc(-c3ccccc3)nc12 | – | – | inactive |
| C1CCSCCCCCSCCCCCSCCCCCSCC1 | > 200 | 44.7 | – |
| Cc1noc(NS(=O)(=O)c2ccc(N=c3c4ccccc4n(-c4ccccc4)c4ccccc34)cc2)c1C | – | – | inactive |
| CC(=O)Oc1c(OC(C)C)cc(=O)n2ccsc12 | > 200 | 102 | – |
| O=[N+]([O-])c1ccc2nsnc2c1 | > 105 | 47.9 | – |
| NCCCNCCCCNCCCNCc1c2ccccc2c(CNCCCNCCCCNCCCN)c2ccccc12 | > 1820 | 3.8 | – |
| COC(=O)C1=C(\N2CCOCC2)CCCCC/C=C\1C(=O)OC | > 776 | 513 | – |
| Nn1c(CCCCCCCCc2nnc(COc3ccc4ccccc4c3O)n2N)nnc1COc1ccc2ccccc2c1O | > 200 | 2.45 | – |
| CCOC(=O)c1c(C)c2c(n1C)CCc1cn[nH]c1-2 | > 191 | 126 | – |
| CCOC(=O)C(=Cc1ccc(N(C)C)cc1)C(=O)OCC | > 89.1 | 46.8 | – |

| Structure (SMILES) | EC50 [µM] | IC50 [µM] | outcome |
| --- | --- | --- | --- |
| O=C(O)CCNC(=O)OCc1ccccc1 | > 200 | > 200 | – |
| Cc1cn(C2CC(S(=O)c3ccccc3)C(CO)O2)c(=O)[nH]c1=O (stereo not given) | > 200 | > 200 | – |
| COc1ccc(C(CC(=O)c2ccc3c(c2)OCO3)C(=O)O)cc1OC (stereo not given) | – | – | inactive |
| Nc1nccc(NCC2(CO)CC(CCc3ccccc3)C2)n1 (stereo not given) | > 200 | 10.5 | – |
| Cc1cc(C)c(SSc2nnnn2C)c(C)c1 | > 200 | 19.5 | – |
| CC(C)(O)c1cc2nc3ccccc3nc2n1CCO | > 200 | > 200 | – |
| COC(=O)C1=C(O)c2cc(OC)c(OC)c(OC)c2C(c2ccc3c(c2)OCO3)[C@@H]1C(=O)OC (stereo not given in full) | – | – | inactive |
| [CH3][Ge]([CH3])([CH2]CC#N)[S]c1ccccc1 | > 200 | 20 | – |
| CN(C)C(=O)C(CC[N+]1(C)CCCC12CCCCC2)(c1ccccc1)c1ccccc1 (stereo not given) | > 200 | 74.1 | – |
| CSC1=C(SC)C(=O)c2cn(C)c(=O)cc2C1=O | > 200 | 0.977 | – |
| Nc1ccc(C(c2ccccc2)(c2ccccc2)c2ccccc2)cc1 | – | – | inactive |
| CN(C)CCNC1c2ccccc2CCc2ccccc21 | – | – | inactive |
| CC1=CC(=O)c2cccc(NC3=NCCO3)c21 | > 200 | 72.4 | – |
| [O-][n+]1onc2c3nn(-c4ccccc4)nc3ccc21 | > 200 | 12 | – |
| O=C(c1cccc(O)c(=O)c1)C1OC1c1ccccc1 (stereo not given) | > 145 | 2.82 | – |
| O=[N+]([O-])c1ccc(N=NN2CCCC2)cc1 | > 200 | 18.6 | – |
| S=C(N/N=C(/c1ccccc1)c1ccccn1)N1CCCCCC1 | > 0.2 | 0.115 | – |
| CCCCC1(C(NC(=O)c2ccccc2Cl)c2ccncc2)C(=O)N(c2ccccc2)N(c2ccccc2)C1=O (stereo not given) | – | – | inactive |
| COc1ccccc1N1C(=O)C2C3c4ccccc4C(OC(C)=O)(c4ccccc43)C2C1=O (stereo not given) | > 200 | > 200 | – |
| O=c1cc(-c2ccccc2)oc2cc(OCCCCCCCCCCOc3ccc4c(=O)cc(-c5ccccc5)oc4c3)ccc12 | > 1.7 | > 1.7 | – |
| Clc1nc2cc3c(cc2n2cccc12)oc1ccccc13 | > 200 | > 200 | – |
| Nc1nonc1-c1noc(-c2nonc2N)[n+]1[O-] | > 200 | 12.3 | – |

| Structure (SMILES) | EC50 [µM] | IC50 [µM] | outcome |
| --- | --- | --- | --- |
| CC(=O)ON(OC(C)=O)c1ccc(C)cc1 | > 200 | > 200 | – |
| COc1ccc(/C(=N/O)c2ccccc2-c2nc3ccccc3c(=O)n2-c2ccc(S(=O)(=O)Nc3ccccn3)cc2)cc1C | > 100 | 63.1 | – |
| CCCc1c(O)nc(Nc2nc3ccccc3[nH]2)[nH]c1=O | > 200 | 63.1 | – |
| CCOC(=O)/C(=C/c1ccc(OC)c(OC)c1)C(=O)c1ccccc1 | > 75.9 | 40.7 | – |
| CCCC(NCCCCCCNC(CCC)C(=O)O)C(=O)O (stereo not given) | > 525 | > 525 | – |
| NC(=O)Nc1c([N+](=O)[O-])cc(C(F)(F)F)cc1[N+](=O)[O-] | – | – | inactive |
| NNC(=O)C1C(C(=O)NN)C2C3C=CC(C4C(=O)NC(=O)C34)C12 (stereo not given) | > 200 | > 200 | – |
| CCc1cccc(C(C)(C)C)c1NC(=S)/N=C/C(C(=O)c1ccccc1)=C(\O)c1ccccc1 | > 200 | 51.3 | – |
| CC(C)(C)c1ccccc1NS(=O)(=O)c1ccccc1 | – | – | inactive |
| CCOC(=O)c1cc(C)nc2c1c(=O)n(-c1ccccc1)c(=O)n2CCCCN1CCN(c2ccccc2)CC1 | > 200 | > 200 | – |
| C=CCC1C(=O)CC2(C)C(CC=C)C(=O)CC12C (stereo not given) | – | – | inactive |
| COc1ccc2nc3ccccc3c(NCCCCN(C)CCCl)c2c1 | > 2 | 0.151 | – |
| COC1CC(CC(C)=O)CN(C#N)CCc2c1[nH]c1ccccc21 (stereo not given) | > 132 | > 132 | – |
| O=C1N=C(SC(SC2=NC(=O)C3(NN2)c2ccccc2-c2ccccc23)=C(SC2=NC(=O)C3(NN2)c2ccccc2-c2ccccc23)SC2=NC(=O)C3(NN2)c2ccccc2-c2ccccc23)NNC12c1ccccc1-c1ccccc12 | > 91.2 | 42.7 | – |
| Cc1ccc(C(=O)NC(C)(C)C)cc1N=NN(C)C | > 138 | > 138 | – |
| CC(=O)Nc1ccc(C2C(C(=O)Nc3ccccc3C)=C(C)NC(C)=C2C(=O)Nc2ccccc2C)cc1 | > 70.8 | > 70.8 | – |
| COc1ccc(/C=C2\N=C(c3ccccc3)N(N=C3NC(=O)CC(=O)N3)C2=O)cc1 | > 200 | > 200 | – |
| Cc1nn(C(=O)c2ccccc2O)c2c1C(c1ccc(O)cc1O)SC(N)=N2 (stereo not given) | > 2 | 0.331 | – |
| CNc1cc[nH]c(=O)c1NC(C)=O | > 1380 | > 1380 | – |
| CCOC(CCc1c(C)nc(NC(C)=O)[nH]c1=O)OCC | > 200 | > 200 | – |
| OC1C(O)C2CC1C1C2C2(Cl)C(Cl)=C(Cl)C1(Cl)C2(Cl)Cl (stereo not given) | > 200 | 12.6 | – |
| C[Si](C)(C)[C@@]1([Se]c2ccccc2)CC[C@@H]1C(=O)c1ccccc1 | > 13.5 | > 13.5 | – |

| Structure (SMILES) | EC50 [µM] | IC50 [µM] | outcome |
| --- | --- | --- | --- |
| O=C(Cc1ccccc1)Nc1ccccc1Cl | > 204 | > 204 | – |
| CCOC(CC(=O)NCCNC(C)=O)OCC | – | – | inactive |
| O=c1[nH]nc(Cc2ccccc2)n1/N=C/c1ccncc1 | 72.4 | 158 | – |
| [N-]=[N+]=NC1=C(c2ccccn2)C(=O)c2cccc3cccc1c23 | > 200 | 4.17 | – |
| O=C(Nc1ccc(Cl)c(Cl)c1)N1c2ccccc2Sc2ccccc21 | – | – | inactive |
| Cc1c2ccccc2nc(CSc2ccccc2)[n+]1[O-] | 9.55 | 178 | – |
| O=c1c(-c2ccccc2)c(SCCO)n(-c2ccccc2)c(=S)n1-c1ccccc1 | > 200 | > 200 | – |
| OCC(O)C(O)C(O)c1nn(-c2ccc(Cl)cc2)c2nc3cc(Cl)c(Cl)cc3nc12 (stereo not given) | – | – | inactive |
| Cc1c2ccn(O)cc2c(C)c2c1nc1ccccc12 | > 200 | 1.82 | – |
| COc1ccc2c(c1)[n+](=O)c(C(=O)CC(=O)C(=O)Nc1cccc(Cl)c1C)c(C)n2[O-] | > 100 | 46.8 | – |
| CNC1=C2NC(=O)/C(C)=C\C=C\C(C)C(O)C(C)C(O)C(C)C(OC(C)=O)C(C)C(OC)/C=C/OC3(C)Oc4c(C)c(O)c(c(c4C3=O)C1=O)C2=O (stereo not given) | > 200 | 3.8 | – |
| CC1CCC2C(C(=O)O[C@H]3C4CCO[C@@H](OC5OC(CO)C(O)C(O)C5O)C4[C@@]4(CO)O[C@@H]34)=CO[C@@H](OC3OC(CO)C(O)C(O)C3O)C12 (stereo not given in full) | > 200 | > 200 | – |
| CC(=S)N/C=C(/c1ccc(Cl)cc1Cl)S(=O)(=O)Cc1ccc(Cl)cc1Cl | > 100 | > 100 | – |
| CC(C)C(=O)/C=C/c1ccc(Cl)cc1Cl | – | – | inactive |
| COC(=O)Nc1nc2ccc(C(=O)c3ccccc3)cc2[nH]1 | > 2 | 0.0692 | – |
| O=C1CCCCC1CN1CCOCC1 (stereo not given) | – | – | inactive |
| CC(=O)C(C(=O)CCSCCO)C(SCCO)c1ccc(Cl)c(Cl)c1 (stereo not given) | > 200 | 10.5 | – |
| C(=N\Nc1ccccc1)/c1nc2ccccc2nc1/C=N/Nc1ccccc1 | > 5.5 | > 5.5 | – |
| COc1c(O)c2c(=O)cc(OC)c3c4c(OC)cc(=O)c5c(O)c(OC)c6c(c(c1CC(C)(O)C6C(C)=O)c23)c54 (stereo not given) | > 13.2 | 1.58 | – |
| CC(=O)c1c(P(=O)(OC(C)C)OC(C)C)nn(-c2ccc([N+](=O)[O-])cc2)c1C | > 166 | > 166 | – |
| OC12CCC[N+]1(Cc1ccccc1)CCC2 (stereo not given) | > 794 | 708 | – |
| Cc1oc(C)c2c1C(=O)N(C)C2=O | > 100 | > 100 | – |
